Test system: 217524-143-R1-J4-PDC spheroids with HUVEC/MSC, viability
Assay: Anticancer human tumor 217524-143-R1-J4-PDC patient-derived pancreatic carcinoma cell line growth inhibition [CLK]
Details: for IC50: curve of first compound; for viability, T/C: stronger effect = lower value
Description: A high-throughput screen of multi-cell type tumor spheroids was designed to identify active combinations of […] and targeted small molecules. Complex spheroids include a stromal component modeled by human endothelial cells (HUVEC) and fibroblasts modeled by human mesenchymal stem cells (MSCs). The concentration ranges selected for each drug and investigational agent were based upon clinically achievable concentrations if the clinical Cmax of the agent was known.
Compounds. The drugs and investigational agents: cirtuvivint (SM08502; NSC835563), CC-671 (NSC850746), vemurafenib (NSC761431), tapotoclax (NSC804041), sotorasib (NSC818433), adagrasib (NSC831453), MRTX-1133 (NSC836407), BAY2416964 (NSC825713), copanlisib (NSC816437), inavolisib (NSC800729), abemaciclib (NSC768073), osimertinib (NSC779217), entinostat (NSC756642), eltanexor (KPT-8602, NSC794443), venetoclax (NSC766270), ceralasertib (NSC777638), bortezomib (NSC756655), olaparib (NSC753686), talazoparib (NSC767125), alisertib (NSC759677), peposertib (NSC802822), gemcitabine (NSC613327), 5-fluorouracil (NSC19893), SN-38 (NSC673596), oxaliplatin (NSC266046), paclitaxel (NSC125973), and doxorubicin (NSC123127), were obtained from the National Cancer Institute (NCI) Developmental Therapeutics Program Chemical Repository. The FDA-approved anticancer drug set is available from the Developmental Therapeutics Program at https://dtp.cancer.gov/organization/dscb/obtaining/available plates.htm. […] The stock solutions were prepared in dimethyl sulfoxide (DMSO, Sigma-Aldrich, St. Louis, MO, cat. D2650), except for the platinum complexes which were prepared in saline (Quality Biological, Gaithersburg, MD, cat. 114-055-101), at 800-fold the tested concentration and stored at -70 degrees C prior to their use. All drugs and investigational agents were tested over a range starting from a high concentration at or near the clinical Cmax and decreasing in half-log increments. If the clinical Cmax for an agent had not been determined, the highest concentration tested was 10 microM.
Cell Culture. All cells were maintained in an incubator at 37 degrees C and 5% CO2 with 95% humidity. The PDC lines were cultured according to standard operating procedures established by the NCI PDMR. Briefly, all PDCs were thawed and cultured in Matrigel-coated flasks prepared with a working solution of 1X Ham's F-12 nutrient mix, without supplementation (Invitrogen, Waltham, MA, cat. 11765054), 100 U/mL penicillin-streptomycin (Invitrogen, cat. 15140122), and 2.5% Matrigel (Corning Inc., Corning, NY, cat. 354248) for the first three passages. The 947758-054-R-J2-PDC line was cultured in 6B/Colon 1A media, which includes advanced DMEM/F-12 (Thermo Fisher Scientific, cat. 12634028), 10 mM HEPES (Thermo Fisher Scientific, cat. 15630080), 1X GlutaMAX supplement (Thermo Fisher Scientific, cat. 35050061), 0.1 mg/mL primocin (InvivoGen, cat. ant-pm-2), 10% defined fetal bovine serum, heat inactivated (HyClone Laboratories Inc., cat. SH30070.03HI), 1.25 mM N-Acetyl-L-cysteine (Sigma-Aldrich, cat. A9165), 10 mM nicotinamide (Sigma-Aldrich, cat. N0636), 1X B-27 supplement (Thermo Fisher Scientific, cat. 17504044), 1X N-2 supplement (Thermo Fisher Scientific, cat. 17502048), and 10 microM Y-27632 dihydrochloride (Tocris Bioscience, cat. 1254). The 876862-298-R-J1-PDC was cultured in 6E media, which includes all 6B/Colon 1A media components plus 50% L-WRN conditioned media (ATCC, cat. CRL-3276), 50 ng/mL recombinant human EGF recombinant protein (hEGF; Thermo Fisher Scientific, cat. PHG0311), 10 ng/mL recombinant human fibroblast growth factor 10 (hGFG-10; PeproTech, cat. 100-26), 1 ng/mL recombinant human fibroblast growth factor 2 (hFGF-2; PeproTech, cat. 100-18B), and 1 µM prostaglandin E2 (PGE2; Tocris, cat. 2296). The 227483-062-R1-J1-PDC line was cultured in Panc media, containing all 6E components except hFGF-2, with the addition of 500 nM SB-431542 (Selleckchem, cat. S1067) and 10 nM gastrin (Tocris, cat. 3006). […]
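Also: spheroids exposed to agents for seven days before reading.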
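For viability, T/C in this document: 100% = DMSO vehicle control viability.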

CCCS(=O)(=O)Nc1ccc(F)c(C(=O)c2c[nH]c3ncc(-c4ccc(Cl)cc4)cc23)c1F + CN1CCN(c2cc(C(=O)Nc3cc4cc(-c5cnn(C)c5)ccc4cn3)ccn2)CC1
IC50 (second compound 0.0316 µM): > 10000 nM | IC50 (second compound 0.1 µM): > 10000 nM | IC50 (second compound 0.316 µM): < 31.6 nM | IC50 (second compound 1 µM): < 31.6 nM | IC50 (second compound 3.16 µM): < 31.6 nM | IC50 (second compound 10 µM): < 31.6 nM | viability, T/C (second compound 0.0316 µM, first compound 0.0316 µM): 86.3% | viability, T/C (second compound 0.0316 µM, first compound 0.1 µM): 69.2% | viability, T/C (second compound 0.0316 µM, first compound 0.316 µM): 107% | viability, T/C (second compound 0.0316 µM, first compound 1 µM): 124% | viability, T/C (second compound 0.0316 µM, first compound 3.16 µM): 135% | viability, T/C (second compound 0.0316 µM, first compound 10 µM): 61.4% | viability, T/C (second compound 0.1 µM, first compound 0.0316 µM): 61.4% | viability, T/C (second compound 0.1 µM, first compound 0.1 µM): 67.7% | viability, T/C (second compound 0.1 µM, first compound 0.316 µM): 62.4% | viability, T/C (second compound 0.1 µM, first compound 1 µM): 78.8% | viability, T/C (second compound 0.1 µM, first compound 3.16 µM): 100% | viability, T/C (second compound 0.1 µM, first compound 10 µM): 44.4% | viability, T/C (second compound 0.316 µM, first compound 0.0316 µM): 26.1% | viability, T/C (second compound 0.316 µM, first compound 0.1 µM): 26.4% | viability, T/C (second compound 0.316 µM, first compound 0.316 µM): 33.3% | viability, T/C (second compound 0.316 µM, first compound 1 µM): 32.9% | viability, T/C (second compound 0.316 µM, first compound 3.16 µM): 34.9% | viability, T/C (second compound 0.316 µM, first compound 10 µM): 19.9% | viability, T/C (second compound 1 µM, first compound 0.0316 µM): 2.26% | viability, T/C (second compound 1 µM, first compound 0.1 µM): 2.37% | viability, T/C (second compound 1 µM, first compound 0.316 µM): 2.29% | viability, T/C (second compound 1 µM, first compound 1 µM): 3.2% | viability, T/C (second compound 1 µM, first compound 3.16 µM): 2.09% | viability, T/C (second compound 1 µM, first compound 10 µM): 2.01% | viability, T/C (second compound 3.16 µM, first compound 0.0316 µM): 0.92% | viability, T/C (second compound 3.16 µM, first compound 0.1 µM): 0.96% | viability, T/C (second compound 3.16 µM, first compound 0.316 µM): 1.2% | viability, T/C (second compound 3.16 µM, first compound 1 µM): 1.02% | viability, T/C (second compound 3.16 µM, first compound 3.16 µM): 1.17% | viability, T/C (second compound 3.16 µM, first compound 10 µM): 0.97% | viability, T/C (second compound 10 µM, first compound 0.0316 µM): 0.29% | viability, T/C (second compound 10 µM, first compound 0.1 µM): 0.32% | viability, T/C (second compound 10 µM, first compound 0.316 µM): 0.65% | viability, T/C (second compound 10 µM, first compound 1 µM): 0.3% | viability, T/C (second compound 10 µM, first compound 3.16 µM): 1.04% | viability, T/C (second compound 10 µM, first compound 10 µM): 1.34%

Reference: PubChem BioAssay AID2060624 (Molecular Pharmacology Branch, DTP, NCI, 2025)
